System: warm season plant species
Assay: B2 Post-emergence efficacy Test 2, warm season plant species
Format: in vivo
Conditions: 15 days after application, 0-100 scale, 0=no damage, 100=total kill; for Herbicidal activity, ABUTH: Abutilon theophrasti; for Herbicidal activity, AMARE: Amaranthus retroflexus; for Herbicidal activity, BIDPI: Bidens pilosa; for Herbicidal activity, BRAPL: Brachiaria plantaginea; for Herbicidal activity, DIGSA: Digitaria sanguinalis; for Herbicidal activity, ECHCG: Echinochloa crus galli; for Herbicidal activity, ELEIN: Eleisine indica; for Herbicidal activity, EPHHL: Euphorbia hetrophylla; for Herbicidal activity, GLXMA: Glycine max; for Herbicidal activity, IPOHE: Ipomoea hederacea; for Herbicidal activity, ORYSA: Orysa sativa; for Herbicidal activity, PANMI: Panicum miliaceum; for Herbicidal activity, SETFA: Setaria faberi; for Herbicidal activity, SIDSP: Sida spinosa; for Herbicidal activity, SORVU: Sorghum bicolour; for Herbicidal activity, XANST: Xanthium strumarium; for Herbicidal activity, ZEAMX: Zea mays
Outline: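 Plants at 12 days post-sowing were sprayed with active ingredient formulated in IF50 plus 0.2% v/v Genapol XO80, then grown in a glasshouse (24/18 °C or 20/16 °C day/night, 16 h light, 65% humidity). Damage scored 15 days after application on 0–100 scale (100 = total kill).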

Cc1nn(C)c(=O)c(-c2c(F)ccc(Cl)c2CCc2ccc(Cl)cc2)c1OC(=O)C(C)C [Compound 1.089]
80: Herbicidal activity, AMARE (15 g/Ha) | Herbicidal activity, AMARE (30 g/Ha) | Herbicidal activity, BIDPI (125 g/Ha) | Herbicidal activity, BIDPI (250 g/Ha) | Herbicidal activity, BRAPL (15 g/Ha) | Herbicidal activity, ECHCG (15 g/Ha) | Herbicidal activity, ECHCG (30 g/Ha) | Herbicidal activity, ECHCG (60 g/Ha) | Herbicidal activity, ELEIN (125 g/Ha) | Herbicidal activity, EPHHL (15 g/Ha) | Herbicidal activity, GLXMA (60 g/Ha) | Herbicidal activity, PANMI (250 g/Ha) | Herbicidal activity, SETFA (500 g/Ha) | Herbicidal activity, SIDSP (30 g/Ha) | Herbicidal activity, XANST (60 g/Ha)
90: Herbicidal activity, ABUTH (30 g/Ha) | Herbicidal activity, AMARE (60 g/Ha) | Herbicidal activity, BRAPL (30 g/Ha) | Herbicidal activity, BRAPL (250 g/Ha) | Herbicidal activity, BRAPL (500 g/Ha) | Herbicidal activity, ECHCG (125 g/Ha) | Herbicidal activity, ECHCG (250 g/Ha) | Herbicidal activity, ELEIN (250 g/Ha) | Herbicidal activity, ELEIN (500 g/Ha) | Herbicidal activity, PANMI (500 g/Ha) | Herbicidal activity, SIDSP (60 g/Ha) | Herbicidal activity, SORVU (125 g/Ha) | Herbicidal activity, SORVU (250 g/Ha) | Herbicidal activity, SORVU (500 g/Ha) | Herbicidal activity, XANST (30 g/Ha) | Herbicidal activity, XANST (125 g/Ha) | Herbicidal activity, XANST (250 g/Ha) | Herbicidal activity, ZEAMX (250 g/Ha)
10: Herbicidal activity, DIGSA (125 g/Ha) | Herbicidal activity, ORYSA (125 g/Ha)
60: Herbicidal activity, BIDPI (30 g/Ha) | Herbicidal activity, PANMI (125 g/Ha) | Herbicidal activity, SETFA (125 g/Ha) | Herbicidal activity, SETFA (250 g/Ha) | Herbicidal activity, SORVU (30 g/Ha)
0: Herbicidal activity, DIGSA (15 g/Ha) | Herbicidal activity, DIGSA (30 g/Ha) | Herbicidal activity, DIGSA (60 g/Ha) | Herbicidal activity, ELEIN (15 g/Ha) | Herbicidal activity, ELEIN (30 g/Ha) | Herbicidal activity, ORYSA (15 g/Ha) | Herbicidal activity, ORYSA (30 g/Ha) | Herbicidal activity, ORYSA (60 g/Ha) | Herbicidal activity, PANMI (15 g/Ha) | Herbicidal activity, SETFA (15 g/Ha) | Herbicidal activity, SORVU (15 g/Ha) | Herbicidal activity, ZEAMX (15 g/Ha)
20: Herbicidal activity, ORYSA (250 g/Ha) | Herbicidal activity, PANMI (30 g/Ha) | Herbicidal activity, SETFA (30 g/Ha) | Herbicidal activity, ZEAMX (30 g/Ha)
100: Herbicidal activity, ABUTH (60 g/Ha) | Herbicidal activity, ABUTH (125 g/Ha) | Herbicidal activity, ABUTH (250 g/Ha) | Herbicidal activity, ABUTH (500 g/Ha) | Herbicidal activity, AMARE (125 g/Ha) | Herbicidal activity, AMARE (250 g/Ha) | Herbicidal activity, AMARE (500 g/Ha) | Herbicidal activity, BIDPI (500 g/Ha) | Herbicidal activity, ECHCG (500 g/Ha) | Herbicidal activity, EPHHL (30 g/Ha) | Herbicidal activity, EPHHL (60 g/Ha) | Herbicidal activity, EPHHL (125 g/Ha) | Herbicidal activity, EPHHL (250 g/Ha) | Herbicidal activity, EPHHL (500 g/Ha) | Herbicidal activity, GLXMA (250 g/Ha) | Herbicidal activity, GLXMA (500 g/Ha) | Herbicidal activity, IPOHE (15 g/Ha) | Herbicidal activity, IPOHE (30 g/Ha) | Herbicidal activity, IPOHE (60 g/Ha) | Herbicidal activity, IPOHE (125 g/Ha) | Herbicidal activity, IPOHE (250 g/Ha) | Herbicidal activity, IPOHE (500 g/Ha) | Herbicidal activity, SIDSP (125 g/Ha) | Herbicidal activity, SIDSP (250 g/Ha) | Herbicidal activity, SIDSP (500 g/Ha) | Herbicidal activity, XANST (500 g/Ha) | Herbicidal activity, ZEAMX (500 g/Ha)
40: Herbicidal activity, DIGSA (250 g/Ha)
50: Herbicidal activity, ORYSA (500 g/Ha) | Herbicidal activity, PANMI (60 g/Ha)
30: Herbicidal activity, DIGSA (500 g/Ha) | Herbicidal activity, SETFA (60 g/Ha) | Herbicidal activity, ZEAMX (60 g/Ha) | Herbicidal activity, ZEAMX (125 g/Ha)
70: Herbicidal activity, ABUTH (15 g/Ha) | Herbicidal activity, BIDPI (15 g/Ha) | Herbicidal activity, BIDPI (60 g/Ha) | Herbicidal activity, ELEIN (60 g/Ha) | Herbicidal activity, GLXMA (30 g/Ha) | Herbicidal activity, SORVU (60 g/Ha)

From patent US12162840B2, “Herbicidal compositions” (SYNGENTA PARTICIPATIONS AG, priority 2018, dated 2024)
